Paper PMC4995014, “Identification of ABC Transporter Interaction of a Novel Cyanoquinoline Radiotracer and Implications for Tumour Imaging by Positron Emission Tomography” (PLoS ONE, 2016)

Experiments:
MCF7 cells [1] = experiment: SRB cell viability assay in MCF7 cells; type: cell-based; settings: Homo sapiens, 72 h
Description: (§1) Cell viability by the sulforhodamine B (SRB) assay was used to assess cell growth and cytotoxicity of test compounds [29]. Cells were seeded at densities of 3,500 to 5,000 cells per well in 96 well plates overnight and pre-treated for 1 h with ABC transporter modulators: 10 μM fumitremorgin C (FTC; in MCF7MX and MCF7 cells), or 0.3 μM of zosuquidar (in 3T3 and 3T3-MDR1). Cells were then treated with test compounds for 72 h, at 37°C. After drug treatment, cells were fixed by addition of 50% trichloroacetic acid (TCA), and the plates washed and dried to allow staining with 0.4% solution of sulforhodamine B (Sigma) in 1% acetic acid for 30 minutes. Excess dye was removed upon washing with 1% acetic acid. Plates were dried and bound protein was solubilised upon addition of 150 μL of 10 mM Tris base buffer. Absorbance was measured at 540 nm using Thermo Multiskan-Ex plate reader. Cell viability versus compound concentration curves were plotted as a percentage of control cells. The concentration of drug that gave 50% inhibition in cell growth (GI50) was extrapolated from these curves using the sigmoid curve fit with variable slope in Prism (GraphPad Prism version 5.01, GraphPad Software, San Diego California USA). Three to six replicate wells were used for each drug concentration and experiments were carried out on three separate occasions for each compound.

MCF7MX cells [2] = experiment: SRB cell viability assay in MCF7MX cells (ABCG2 overexpressing); type: cell-based, human; settings: for fold increase in GI50 in the ABCG2 overexpressing cell line: GI50 MCF7MX over GI50 MCF7, without FTC; for GI50: Homo sapiens, MCF7/MX, 72 h, SRB
Description: as §1

3T3 cells [3] = experiment: SRB cell viability assay in 3T3 cells; type: cell-based; settings: Mus musculus, NIH3T3, 72 h
Description: as §1

3T3-MDR1 cells [4] = experiment: SRB cell viability assay in 3T3-MDR1 cells (ABCB1 expressing); type: cell-based; settings: GI50 3T3-MDR1 over GI50 3T3, without zosuquidar
Description: as §1

ABCB1 (MDR1) = experiment: as above; type: cell-based; settings: mouse, 3T3-MDR1 cells (ABCB1 expressing), 72 h, SRB
Description: as §1

Caco2 transwell assay = type: in vitro ADME, human; settings: human; for efflux ratio at 120 min: Caco-2, no inhibitor, 10 μM cyanoquinoline or 50 μM vinblastine, read-out: efflux ratio (Papp B-A / Papp A-B)
Description: The caco2 transwell assay was performed to assess permeability. Cells were seeded at a density of 60,000 cells per well in 24 well transwell plates (Millipore, Billerica, Massachutsetts, USA), and maintained in DMEM supplemented with […] glucose (20% FBS, 1% penicillin/streptomycin, 1% glutamine) for 21 days at 37°C in 5% CO2. After 21 days the cells differentiate into enterocytes and express all three MDR proteins, ABCB1 and ABCG2 at the apical side and ABCC1 on the basal side. On day 21, cells were washed three times with Hank's Balanced Salt Solution (HBSS) (Fisher scientific, Loughborough, UK) and the trans-epithelial electric resistance (TERR) was measured using an Epithelial Voltohmmeter (EVOM) (World Precision Instruments, Sarasota, USA); only transwells with TERR of 400 Ω/cm^2 or above were used for the experiment. Cells were treated either at the apical (n = 3) or basal (n = 3) side of the transwell by addition of 10 μM of cyanoquinoline compound or 50 μM vinblastine prepared in a volume of 400 μL HBSS (compound added to apical well) or 800 μL of HBSS (added to basal well). When transport inhibitors FTC (10 μM) or zosuquidar (0.3 μM) were used, they were added to both the apical and basal wells 1 h prior to drug treatment. After 1 h pre-treatment the medium was removed and cells were treated with the compounds prepared in HBSS containing FTC or Zosuquidar.
Plates were incubated in shaker incubator at 37°C and 60 rpm for 120 min. After incubation, 200 μL aliquots from the apical and the basal wells were collected and analysed using high performance liquid chromatography (HPLC). Samples were run on a Millipore Waters HPLC system which included a 717 plus autosampler and 2487 dual wavelength absorbance detector system. The stationary phase comprised of a Phenomenex Luna C18 reverse phase column (150 X 4.6 mm; 5 μm particle size). The mobile phase comprised water (0.1% TFA) and acetonitrile (0.1% TFA) (80:20 v/v) at a flow rate of 1 mL/min for all compounds except vinblastine. For vinblastine, the stationary phase comprised a Supelcosil LC-ABZ reverse phase column (5 × 4.6 mm; 5 μm particle size). The mobile phase comprised water (0.1% formic acid) and methanol (90:10 to 10:90 v/v gradient over 20 min). Peak areas corresponding to the compounds of interest were recorded. Using standard curves the areas under the curve were converted into concentrations of compound. The permeability coefficient (Papp) was calculated using the following equation [30]: Papp = (dQ/dt)/A C0, where A is the surface area of the transwell membrane in cm^2 (= 0.33 cm^2), C0 is the drug concentration in the donor chamber at time t = 0 and dQ/dt is the rate of transfer of the compound to the receiver chamber, determined from the slope of the graph concentration (dQ) versus time (dt). Papp values corresponding to absorption and secretion were assessed and used to calculate efflux ratio. Efflux ratio =(Papp B−A)/(Papp A−B) Where Papp A-B = Papp absorption and Papp B-A = Papp secretion.
The integrity of the caco2 cell membrane was assessed for each well following the experiment by addition of a 100 μM solution of […] (Sigma) in HBSS to the apical side of the plate. The plates were placed in the shaker incubator for 1 h at 37°C and 60 rpm. Samples from the basal wells were transferred into a 96 well plate and the levels of […] were assessed by measuring with an excitation of 450 nm and an emission of 540 nm using the PerkinElmer Wallac 1420 counter.

3T3 cells [5] = experiment: Cell uptake assay in 3T3 cells; type: cell-based; settings: 1 h incubation with 0.22 MBq
Description: (§2) [^18F]FED6 and [^18F]FED20 were synthesised as previously reported. To increase specific radioactivity of [^18F]FED20, we modified the synthesis by decreasing the amount of alkyne precursor from 1 mg down to 0.5 mg. While this had the desired effect of increasing the specific activity from 7.3 GBq/μmol up to 52 GBq/μmol, the conversion of the alkyne to the triazole product dropped from > 95% down to 45%. Cells were seeded in 6 well plates and [^18F]FED6 (0.22 MBq) or [^18F]FED20 (0.55 MBq or 0.74 MBq) added to each well and incubated at 37°C for 1 h. Media were then removed and cells were washed twice with PBS. The cells were trypsinised and centrifuged for 3 minutes at 2000 rpm to obtain a pellet. The cell pellet was washed once with PBS and resuspended in 200 μL of RIPA buffer. Cell lysates were transferred to gamma counting tubes and the radioactivity in the pellet was measured on a Packard Cobra II gamma counter, (Perkin-Elmer, Waltham, Massachusetts, USA). Protein concentrations of samples were evaluated using Pierce® BCA Protein Assay Kit (Thermo Scientific, Waltham, Massachusetts, USA). Data were expressed as background- and decay-corrected counts per minute (CCPMA) per μg of cellular protein.

3T3-MDR1 cells [6] = experiment: Cell uptake assay in 3T3-MDR1 cells; type: cell-based
Description: as §2

MCF7 cells [7] = experiment: Cell uptake assay in MCF7 cells; type: cell-based, human; settings: 1 h incubation with 0.22 MBq
Description: as §2

MCF7MX cells [8] = experiment: Cell uptake assay in MCF7MX cells; type: cell-based, human
Description: SiRNA transfections were carried out using ON TARGET plus-SMARTpool siRNA or non-targeting siRNA (Dharmacon, Lafayette, Louisianna, USA); ABCG2, L-009924-00-0005 and scramble (non-targeting) D-001810-10-05. Lipofectamine RNAiMAX (Invitrogen UK) was used as the transfection reagent and was prepared as indicated on the product protocol. Cells were seeded in black 96 well plates in antibiotic free media. On the day of transfection, siRNA and Lipofectamine were separately diluted in opti-MEM media, mixed in a 1 to 1 ratio and incubated at room temperature for 20 min; the siRNA-Lipofectamine complexes were then added to the cells. Fresh media containing 1% penicillin streptomycin was added to the cells after 24 h followed by Hoechst fluorescent assays at 72 h.
as §2

H358 cells = experiment: Cell uptake assay in H358 cells; type: cell-based; settings: 1 h incubation with 0.22 MBq
Description: as §2

[9] = 1 h pre-treatment with 10 μM FTC
[10] = pre-treatment with 0.3 μM zosuquidar
[11] = with zosuquidar 0.3 μM (1 h pre-treatment), pre-treatment with 0.3 μM zosuquidar

Compound | GI50 (MCF7 cells [1]; [9]) | GI50 (MCF7 cells [1]; without FTC) | fold increase in GI50 in the ABCG2 overexpressing cell line (MCF7MX cells [2]) | GI50 (MCF7MX cells [2]; [9]) | GI50 (MCF7MX cells [2]; without FTC) | GI50 (3T3 cells [3]; [10]) | GI50 (3T3 cells [3]; without zosuquidar) | fold increase in GI50 in the ABCB1 overexpressing cell line (3T3-MDR1 cells [4]) | GI50 at 72 h (ABCB1 (MDR1); [11]) | GI50 at 72 h (ABCB1 (MDR1); without zosuquidar) | efflux ratio at 120 min (Caco2 transwell assay) | further results
CCOc1cc2ncc(C#N)c(Nc3ccc(F)c(Cl)c3)c2cc1NC(=O)/C=C/CN(C)C [EKB-569, pelitinib, reference compound] | 2.55 ± 0.04 µM | 2.61 ± 0.07 µM | 1.7 fold | 1.54 ± 0.06 µM | 4.28 ± 0.23 µM | 1.15 ± 0.6 µM | 1.06 ± 0.6 µM | 5.4 fold | 2.7 ± 0.8 µM | 5.75 ± 0.7 µM | > 3 | 
CCOc1cc2ncc(C#N)c(Nc3ccc(F)c(Cl)c3)c2cc1NC(=O)/C=C/CNC [FED2] | 14.8 ± 8.54 µM | 14.9 ± 8.6 µM | 3.2 fold | 10.3 ± 5.95 µM | 27.6 ± 15.9 µM | 4.5 ± 0.8 µM | 7 ± 1.2 µM | 5.1 fold | 5.9 ± 0.6 µM | 36 ± 1.1 µM | > 3 | 
CCOc1cc2ncc(C#N)c(Nc3ccc(F)c(Cl)c3)c2cc1N [FED14] | 11.2 ± 1.11 µM | 11.4 ± 1.36 µM |  | 10.1 ± 0.73 µM | 6.53 ± 0.34 µM | 14.8 ± 0.7 µM | 14.8 ± 0.7 µM |  | 12.2 ± 0.6 µM | 8.7 ± 0.7 µM | < 1 | 
O=C1c2c(O)ccc(O)c2C(=O)c2c(NCCNCCO)ccc(NCCNCCO)c21 [Mitoxantrone, reference compound] | 6.62 ± 3.82 µM | 10.7 ± 6.18 µM |  | 22.8 ± 13.1 µM | 2500 ± 1440 µM | 197 ± 0.6 µM | 37 ± 0.8 µM |  | 57 ± 1 µM | 141 ± 1 µM |  | 
CC[C@]1(O)C[C@@H]2CN(CCc3c([nH]c4ccccc34)[C@@](C(=O)OC)(c3cc4c(cc3OC)N(C)[C@H]3[C@@](O)(C(=O)OC)[C@H](OC(C)=O)[C@]5(CC)C=CCN6CC[C@]43[C@@H]65)C2)C1 [Vinblastine, reference compound] | 0.00536 ± 0.00063 µM | 0.00512 ± 0.00074 µM |  | 0.00266 ± 0.00066 µM | 0.00208 ± 0.00041 µM | 0.0015 ± 0.0012 µM | 0.0018 ± 0.001 µM |  | 0.0011 ± 0.0011 µM | 0.219 ± 0.0008 µM |  | efflux ratio at 120 min, 50 μM (Caco2 transwell assay; Caco-2, pre-treatment with zosuquidar, read-out: efflux (permeability) ratio after pre-treatment with zosuquidar): 1.7
CCOc1cc2ncc(C#N)c(Nc3ccc(F)c(Cl)c3)c2cc1NC(=O)/C=C/CNCc1cn(CC[18F])nn1 [[^18F]FED6, [^18F](2E)-N-{4-[(3-chloro-4-fluorophenyl)amino]-3-cyano-7-ethoxyquinolin-6-yl}-4-({[1-(2-fluoroethyl)-1H-1,2,3-triazol-4-yl]methyl}amino)-but-2-enamide] |  |  |  |  |  |  |  |  |  |  |  | protein normalised uptake in 3T3 cells (3T3 cells [5]): 22 CCPMA/μg of protein; fold increase of uptake in 3T3-MDR1 cells following zosuquidar pre-treatment (3T3-MDR1 cells [6]; 0.3 μM zosuquidar for 1 h): 19 fold; protein normalised uptake in 3T3-MDR1 cells (3T3-MDR1 cells [6]; 1 h incubation with 0.22 MBq): 0.7 CCPMA/μg of protein; protein normalised uptake in MCF7 cells (MCF7 cells [7]): 81 CCPMA/μg of protein; uptake in MCF7MX cells following ABCG2 siRNA (MCF7MX cells [8]; 25 nM ABCG2 siRNA 72 h, 1 h incubation with 0.22 MBq): 3.5 CCPMA/μg protein; uptake in scramble siRNA transfected MCF7MX cells (MCF7MX cells [8]; 25 nM scrambled siRNA 72 h, 1 h incubation with 0.22 MBq): 0.6 CCPMA/μg protein; fold increase of uptake in MCF7MX cells following FTC pre-treatment (MCF7MX cells [8]; 10 μM FTC for 1 h): 4 fold; uptake in MCF7MX cells following FTC pre-treatment (MCF7MX cells [8]; 10 μM FTC for 1 h, 1 h incubation with 0.22 MBq): 6 CCPMA/μg protein; uptake in MCF7MX cells following gefitinib pre-treatment (MCF7MX cells [8]; 10 μM gefitinib for 1 h, 1 h incubation with 0.22 MBq): 6.3 CCPMA/μg protein; protein normalised uptake in MCF7MX cells (MCF7MX cells [8]; 1 h incubation with 0.22 MBq): 7.7 CCPMA/μg of protein; protein normalised uptake in H358 cells (H358 cells): 86 CCPMA/μg of protein
